According to publication PMC12094020, “Elucidation of novel turnagainolides and their biosynthetic gene cluster in Bacillus subtilis” (Applied and Environmental Microbiology, 2025):
pIC50: −log10 of the molar value. Entries after “also recorded” stand apart in the source; their conditions may differ.

How the values were obtained:
[1] = tested on: SHIP1 enzyme; conditions: in vitro; cited from earlier work
Excerpt: (§1) Turnagainolides are a distinctive family of cyclic depsipeptides containing one (E)-3-hydroxy-5-phenylpent-4-enoic acid (Hppa) and four proteinogenic amino acids (Fig. S1). As the first member of this family, compound EGM-556 was discovered from the marine fungus Microascus sp. EGM-556 following the introduction of the histone deacetylase inhibitor suberoylanilide hydroxamic acid to activate a silent biosynthetic gene cluster. However, its stereochemistry was only partially resolved, and no bioactivity was reported ([3]).

[2] = tested on: quorum-sensing in Staphylococcus aureus; conditions: ref 5 (Igarashi et al.); read-out: quorum-sensing inhibition in Staphylococcus aureus, IC50; cited from earlier work
Excerpt: as §1, with “([3]). Subsequently, turnagainolides A and B were identified from Bacillus sp., ...” for “([3]).”

[3] = tested on: S. aureus biofilm; test: biofilm inhibition experiment (crystal violet); type: cell-based; conditions: overnight 37°C, TSB, OD570
Protocol: S. aureus was cultured overnight in 3 mL of TSB medium. The next morning, the culture was diluted to an OD570 of 0.5 with fresh TSB medium and then further diluted 1,000-fold to achieve a final concentration of 1 × 10^6 CFU/mL. Aliquots of 100 µL of the diluted culture were transferred to individual wells of a 96-well plate. Test compounds were added to the first well of each row at a concentration of 800 µg/mL, followed by twofold serial dilutions across the row. The plate was incubated overnight at 37°C. The medium was subsequently discarded, and the wells were washed three times with PBS (KH2PO4 0.27 g, Na2HPO4 1.42 g, NaCl 8 g, KCl 0.2 g in 1 L deionized water, pH 7.4). Next, 200 µL of methanol was added to each well to fix the biofilm, and the plate was incubated for 15 minutes. The methanol was then removed, and the wells were stained with 0.1% crystal violet for 5 minutes. Excess dye was washed off, and the plate was air-dried. To dissolve the bound stain, 200 µL of glacial acetic acid was added to each well, and the plate was shaken for 20 minutes. The absorbance at OD570 was measured using a microplate reader (Thermo Fisher Scientific, Varioskan LUX).

[4] = tested on: bacteria; parameters: method as in doi:10.1016/j.cclet.2016.03.018; conditions: compared among congeners; cited from earlier work
[5] = tested on: S. aureus; conditions: cited from earlier work
Excerpt: as §1, with “([3]). Subsequently, turnagainolides A and B were identified from Bacillus sp., ...” for “([3]).”

[6] = tested on: Escherichia coli; conditions: cited from earlier work
Excerpt: as §1, with “([3]). Subsequently, turnagainolides A and B were identified from Bacillus sp., ...” for “([3]).”

[7] = tested on: Candida albicans; conditions: cited from earlier work
Excerpt: as §1, with “([3]). Subsequently, turnagainolides A and B were identified from Bacillus sp., ...” for “([3]).”

Substance | activation of SHIP1 enzyme [1] | pIC50 [2] | anti-biofilm activity at concentrations above 100 µg/mL [3] | also measured
Turnagainolide A [Compound 1] | only turnagainolide B activates SHIP1 | 6.10 | – | anti-biofilm activity at 200 µg/mL ([3]; 200 µg/mL): no activity; anti-biofilm activity at 400 µg/mL ([3]; 400 µg/mL): weak inhibitory activity
Turnagainolide B [Compound 2] | activates SHIP1; also recorded: activator of the SHIP1 enzyme | – | slightly stronger inhibition; also recorded: weak inhibition | –
Turnagainolide D [Compound 3] | – | – | slightly stronger inhibition; also recorded: weak inhibition | –
arthroamide [reference compound] | – | 6.52 | – | –
turnagainolide C | – | – | – | antibacterial activity [4]: only congener that exhibits antibacterial activity; anti-microbial activity against S. aureus [5]: anti-microbial activity; anti-microbial activity against Escherichia coli [6]: anti-microbial activity; anti-microbial activity against Candida albicans [7]: anti-microbial activity
